Laboratory results from article PMC10939098 (Emerging Microbes & Infections, 2024).
Where a chain is given by its changes, count along the chain named. Values after ≈ are worked out from the molar mass of the structure shown.

B1: PER-1 (Pseudomonas aeruginosa) (protein)
chain: QSPLLKEQIESIVIGKKATVGVAVWGPDDLEPLLINPFEKFPMQSVFKLHLAMLVLHQVDQGKLDLNQTVIVNRAKVLQNTWAPIMKAYQGDEFSVPVQQLLQYSVSHSDNVACDLLFELVGGPAALHDYIQSMGIKETAVVANEAQMHADDQVQYQNWTSMKGAAEILKKFEQKTQLSETSQALLWKWMVETTTGPERLKGLLPAGTVVAHKTGTSGIKAGKTAATNDLGIILLPDGRPLLVAVFVKDSAESSRTNEAIIAQVAQTAYQFELKKLSALSPN

How the values were obtained:
[1] = test system: PER-producing P. aeruginosa clinical isolates; assay: microbe, parasite or virus in culture; format: cell-based, Pseudomonas aeruginosa; settings: for % resistance: share of isolates resistant
Recombinant PAO1 strains = assay: Broth microdilution MIC, recombinant PAO1 strains carrying blaPER; format: cell-based; settings: Pseudomonas aeruginosa
PER-4 [2] = molecular target: T1, PER-4 (Pseudomonas aeruginosa, UniProt P37321, S135T); assay: Steady-state enzyme kinetics, purified PER-4; format: biochemical; settings: room temperature, 1×PBS pH 7.2
T1 sequence (P37321 27-308 S135T): B1 chain with S109T

[3] = test system: PAO1 transconjugants carrying blaPER-1 plasmids; assay: Broth microdilution MIC, transconjugants and recipient PAO1-Rrif; format: cell-based; settings: Pseudomonas aeruginosa
PER-1 [4] = molecular target: T2, PER-1 (Pseudomonas aeruginosa, UniProt P37321); assay: Steady-state enzyme kinetics, purified PER-1; format: biochemical; settings: PER-1 vs PER-4
T2 sequence (P37321 27-308): B1 chain

PER-4 [5] = molecular target: T1, PER-4; assay: Direct competition inhibition assay with nitrocefin, PER-4; format: biochemical; settings: for fold higher IC50 value against PER-4 than against wild-type PER-1: PER-4 vs PER-1
PER-1 [6] = molecular target: T2, PER-1; assay: Direct competition inhibition assay with nitrocefin, PER-1; format: biochemical
[7] = substrate: O=C(Cc1cccs1)N[C@@H]1C(=O)N2C(C(=O)O)=C(/C=C/c3ccc([N+](=O)[O-])cc3[N+](=O)[O-])CS[C@H]12; assay: Steady-state enzyme kinetics, purified PER-1; format: biochemical, Pseudomonas aeruginosa; settings: other: PER-1, room temperature, 1×PBS pH 7.2
[8] = substrate: CC(C)(O/N=C(\C(=O)N[C@@H]1C(=O)N2C(C(=O)[O-])=C(C[n+]3ccccc3)CS[C@H]12)c1csc(N)n1)C(=O)O; assay: Steady-state enzyme kinetics, purified PER-1; format: biochemical, Pseudomonas aeruginosa; settings: other: PER-1, room temperature, 1×PBS pH 7.2
[9] = Pseudomonas aeruginosa, isolate PA268
[10] = Pseudomonas aeruginosa, isolate PA272
[11] = Pseudomonas aeruginosa, isolate PA282
[12] = Pseudomonas aeruginosa, isolate PA975
[13] = Pseudomonas aeruginosa, isolate PA1017
[14] = Pseudomonas aeruginosa, isolate PA1018
[15] = PAO1, strain PAO1-pGK1900 (empty vector)
[16] = PAO1, transconjugant PAO1/pPA268
[17] = PAO1, transconjugant PAO1/pPA272
[18] = PAO1, transconjugant PAO1/pPA282
[19] = PAO1, transconjugant PAO1/pPA975
[20] = PAO1, transconjugant PAO1/pPA1017
[21] = PAO1, transconjugant PAO1/pPA1018
[22] = PAO1, recipient strain PAO1-R^rif

| Molecule | % resistance ([1]; 56 PER-producing PA strains) [%] | MIC50 ([1]; Pseudomonas aeruginosa) [µg/mL] | MIC90 ([1]; Pseudomonas aeruginosa) [µg/mL] | MIC (Recombinant PAO1 strains; PAO1) [µg/mL] | MIC (Recombinant PAO1 strains; [15]) [µg/mL] | MIC (Recombinant PAO1 strains; PAO1, strain PAO1-pGK1900-PER1) [µg/mL] | MIC (Recombinant PAO1 strains; PAO1, strain PAO1-pGK1900-PER4) [µg/mL] | MIC [3, 16] [µg/mL] | MIC [3, 17] [µg/mL] | MIC [3, 18] [µg/mL] | MIC [3, 19] [µg/mL] | MIC [3, 20] [µg/mL] | MIC [3, 21] [µg/mL] | further results |
| --- | --- | --- | --- | --- | --- | --- | --- | --- | --- | --- | --- | --- | --- | --- |
| CC(C)(O/N=C(\C(=O)N[C@@H]1C(=O)N2C(C(=O)[O-])=C(C[n+]3ccccc3)CS[C@H]12)c1csc(N)n1)C(=O)O [CAZ, ceftazidime] | 100.00 | > 128 | > 128 | 1 | 2 | > 128 | > 128 | > 128 | > 128 | > 128 | 128 (≈ 234 µM) | > 128 | > 128 | MIC range ([1]; 56 PER-producing PA strains): >128 µg/mL; % resistance ([1]; 56 PER-producing PA strains, listed as ceftazidime): 100%; MIC [1, 9]: > 128 µg/mL; MIC [1, 10]: > 128 µg/mL; MIC [1, 11]: > 128 µg/mL; MIC [1, 12]: > 128 µg/mL; MIC [1, 13]: > 128 µg/mL; MIC [1, 14]: > 128 µg/mL; Km (PER-4 [2]): 726 µM; kcat (PER-4 [2]): 607.66 s⁻¹ |
| C[C@@H](O)[C@H]1C(=O)N2C(C(=O)O)=C(S[C@@H]3CN[C@H](C(=O)N(C)C)C3)[C@H](C)[C@H]12 [MEM, meropenem] | 91.07 | 16 (≈ 41.7 µM) | 64 (≈ 167 µM) | 0.5 | 1 | 1 | 1 | 1 (≈ 2.61 µM) | 1 (≈ 2.61 µM) | 1 (≈ 2.61 µM) | 2 (≈ 5.22 µM) | 1 (≈ 2.61 µM) | 32 (≈ 83.4 µM) | MIC [1, 9]: 16 µg/mL (≈ 41.7 µM); MIC [1, 10]: 32 µg/mL (≈ 83.4 µM); MIC [1, 11]: 32 µg/mL (≈ 83.4 µM); MIC [1, 12]: 16 µg/mL (≈ 41.7 µM); MIC [1, 13]: 16 µg/mL (≈ 41.7 µM); MIC [1, 14]: 32 µg/mL (≈ 83.4 µM) |
| colistin [CST] | 0.00 |  |  |  |  |  |  |  |  |  |  |  |  | MIC50 ([1]; 56 PER-producing PA strains): 2 µg/mL; MIC90 ([1]; 56 PER-producing PA strains): 2 µg/mL; MIC range ([1]; 56 PER-producing PA strains): 0.25 to 2 µg/mL |
| CO/N=C(\C(=O)N[C@@H]1C(=O)N2C(C(=O)[O-])=C(C[N+]3(C)CCCC3)CS[C@H]12)c1csc(N)n1 [FEP, cefepime] |  |  |  | 1 | 4 | > 128 | > 128 | 128 (≈ 266 µM) | 128 (≈ 266 µM) | 128 (≈ 266 µM) | 64 (≈ 133 µM) | 128 (≈ 266 µM) | 128 (≈ 266 µM) | MIC [3, 22]: 2 µg/mL (≈ 4.16 µM) |
| C[C@H]1COc2c(N3CCN(C)CC3)c(F)cc3c(=O)c(C(=O)O)cn1c23 [LEV, levofloxacin] | 82.14 | 16 (≈ 44.3 µM) | 32 (≈ 88.6 µM) |  |  |  |  |  |  |  |  |  |  | MIC range ([1]; 56 PER-producing PA strains): 0.5 to 64 µg/mL |
| O=C(Cc1cccs1)N[C@@H]1C(=O)N2C(C(=O)O)=C(/C=C/c3ccc([N+](=O)[O-])cc3[N+](=O)[O-])CS[C@H]12 [Nitrocefin] |  |  |  |  |  |  |  |  |  |  |  |  |  | fold lower nitrocefin hydrolysis activity of PER-1 than PER-4 (PER-1 [4]): ~1.7 fold; Km (PER-4 [2]): 18.5 µM; kcat (PER-4 [2]): 224.03 s⁻¹ |
| NC(=O)[C@@H]1CC[C@@H]2CN1C(=O)N2OS(=O)(=O)O [Avibactam] |  |  |  |  |  |  |  |  |  |  |  |  |  | IC50 (PER-4 [5]): 729 µM; Ki (PER-4 [5]): 473 ± 29.2 µM; fold higher IC50 value against PER-4 than against wild-type PER-1 (PER-4 [5]): ~3359 fold; IC50 (PER-1 [6]): 0.217 µM; Ki (PER-1 [6]): 0.191 ± 0.004 µM |
| CCN1CCN(C(=O)N[C@@H](C(=O)N[C@@H]2C(=O)N3[C@@H]2SC(C)(C)[C@@H]3C(=O)O)c2ccccc2)C(=O)C1=O [PIP, piperacillin] | 98.21 | > 128 | > 128 | 4 |  | 32 | 16 | > 128 | > 128 | > 128 | 128 (≈ 247 µM) | 128 (≈ 247 µM) | > 128 | MIC [1, 9]: > 128 µg/mL; MIC [1, 10]: > 128 µg/mL; MIC [1, 11]: > 128 µg/mL; MIC [1, 12]: 128 µg/mL (≈ 247 µM); MIC [1, 13]: > 128 µg/mL; MIC [1, 14]: > 128 µg/mL |
| O=C(O)[C@H]1/C(=C/CO)O[C@@H]2CC(=O)N21 [Clavulanic acid] |  |  |  |  |  |  |  |  |  |  |  |  |  | IC50 (PER-4 [5]): 0.152 µM; Ki (PER-4 [5]): 0.099 ± 0.0006 µM; fold higher IC50 value against PER-4 than against wild-type PER-1 (PER-4 [5]): ~5.6 fold; IC50 (PER-1 [6]): 0.027 µM; Ki (PER-1 [6]): 0.024 ± 0.0004 µM |
| C[C@H]1[C@H](NC(=O)/C(=N\OC(C)(C)C(=O)O)c2csc(N)n2)C(=O)N1S(=O)(=O)O [AZT, aztreonam] |  |  |  | 4 | 8 | > 128 | > 128 | > 128 | > 128 | > 128 | > 128 | > 128 | > 128 | MIC [3, 22]: 2 µg/mL (≈ 4.59 µM) |
| NCC[C@H](O)C(=O)N[C@@H]1C[C@H](N)[C@@H](O[C@H]2O[C@H](CN)[C@@H](O)[C@H](O)[C@H]2O)[C@H](O)[C@H]1O[C@H]1O[C@H](CO)[C@@H](O)[C@H](N)[C@H]1O [AMK, amikacin] | 94.64 | > 128 | > 128 |  |  |  |  |  |  |  |  |  |  |  |
| CC(C)(O/N=C(\C(=O)N[C@@H]1C(=O)N2C(C(=O)[O-])=C(C[N+]3(CCNC(=O)c4ccc(O)c(O)c4Cl)CCCC3)CS[C@H]12)c1csc(N)n1)C(=O)O [CFDC, Cefiderocol] |  |  |  | 1 | 0.5 | 2 | 2 | 2 (≈ 2.66 µM) | 2 (≈ 2.66 µM) | 2 (≈ 2.66 µM) | 2 (≈ 2.66 µM) | 2 (≈ 2.66 µM) |  | MIC [1, 9]: 2 µg/mL (≈ 2.66 µM); MIC [1, 10]: 2 µg/mL (≈ 2.66 µM); MIC [1, 11]: 2 µg/mL (≈ 2.66 µM); MIC [1, 12]: 1 µg/mL (≈ 1.33 µM); MIC [1, 13]: 2 µg/mL (≈ 2.66 µM); MIC [1, 14]: 1 µg/mL (≈ 1.33 µM); MIC [3, 22]: 0.5 µg/mL (≈ 0.665 µM) |
| C[C@]1(Cn2ccnn2)[C@H](C(=O)O)N2C(=O)C[C@H]2S1(=O)=O [Tazobactam] |  |  |  |  |  |  |  |  |  |  |  |  |  | IC50 (PER-4 [5]): 1090 µM; Ki (PER-4 [5]): 707 ± 97.7 µM; fold higher IC50 value against PER-4 than against wild-type PER-1 (PER-4 [5]): ~3002 fold; IC50 (PER-1 [6]): 0.363 µM; Ki (PER-1 [6]): 0.32 ± 0.0131 µM |
| B1 |  |  |  |  |  |  |  |  |  |  |  |  |  | Km [7]: 72.92 µM; kcat [7]: 512 s⁻¹; Km [8]: 668.75 µM; kcat [8]: 537 s⁻¹ |
